Data: ChEMBL document CHEMBL4842347, “Structure-activity relationship and biochemical evaluation of novel fibroblast activation protein and prolyl endopeptidase inhibitors with α-ketoamide warheads” (Eur J Med Chem, 2021)
Activity calls are given as the source filed them. No cut-off for these calls is given here.

Tests used:
HeLa = assay: Cytotoxicity against human HeLa cells assessed as reduction in cell viability incubated for 72 hrs measured by […]-based colorimetric assay; format: functional
HL-60 = assay: Cytotoxicity against human HL-60 cells assessed as reduction in cell viability incubated for 72 hrs measured by […]-based colorimetric assay; format: functional
HepG2 = assay: Cytotoxicity against human HepG2 cells assessed as reduction in cell viability incubated for 72 hrs measured by […]-based colorimetric assay; format: functional
CCRF-CEM = assay: Cytotoxicity against human CCRF-CEM cells assessed as reduction in cell viability incubated for 72 hrs measured by […]-based colorimetric assay; format: functional
[1] = Inhibition of PREP (unknown origin) using fluorogenic substrate by spectrometric assay; parameters: species or system Homo sapiens

| Compound | Activity (HeLa) | Activity (HL-60) | Activity (HepG2) | Activity (CCRF-CEM) | IC50 [1] [µM] |
| --- | --- | --- | --- | --- | --- |
| O=C(NC12CC3CC(CC(C3)C1)C2)C(=O)[C@@H]1CCCN1C(=O)CNC(=O)c1ccnc2ccccc12 | inactive | inactive | inactive | inactive | – |
| CN(C)C(=O)CNC(=O)C(=O)[C@@H]1CCCN1C(=O)CNC(=O)c1ccnc2ccccc12 | inactive | inactive | inactive | inactive | – |
| COC(=O)[C@H](CCC(N)=O)NC(=O)CNC(=O)C(=O)[C@@H]1CCCN1C(=O)CNC(=O)c1ccnc2ccccc12 | inactive | inactive | inactive | inactive | – |
| O=C(CNC(=O)C(=O)[C@@H]1CCCN1C(=O)CNC(=O)c1ccnc2ccccc12)NC1CC1 | inactive | inactive | inactive | inactive | – |
| COC(=O)[C@H](CCC(=O)NCc1ccccc1)NC(=O)CNC(=O)C(=O)[C@@H]1CCCN1C(=O)CNC(=O)c1ccnc2ccccc12 | inactive | inactive | inactive | inactive | – |
| COc1ccc(NC(=O)C(=O)[C@@H]2CCCN2C(=O)CNC(=O)c2ccnc3ccccc23)cc1 | inactive | inactive | inactive | inactive | – |
| O=C(CNC(=O)C(=O)[C@@H]1CCCN1C(=O)CNC(=O)c1ccnc2ccccc12)NCc1ccccc1 | inactive | inactive | inactive | inactive | – |
| O=C(NC(c1ccccc1)c1ccccc1)C(=O)[C@@H]1CCCN1C(=O)CNC(=O)c1ccnc2ccccc12 | inactive | inactive | inactive | inactive | – |
| O=C(NC1CCCCC1)C(=O)[C@@H]1CCCN1C(=O)CNC(=O)c1ccnc2ccccc12 | inactive | inactive | inactive | inactive | – |
| COc1ccc(CNC(=O)C(=O)[C@@H]2CCCN2C(=O)CNC(=O)c2ccnc3ccccc23)cc1 | inactive | inactive | inactive | inactive | – |
| COc1cccc(CNC(=O)C(=O)[C@@H]2CCCN2C(=O)CNC(=O)c2ccnc3ccccc23)c1 | inactive | inactive | inactive | inactive | – |
| O=C(NC1CC1)C(=O)[C@@H]1CCCN1C(=O)CNC(=O)c1ccnc2ccccc12 | inactive | inactive | inactive | inactive | – |
| CCCCCCNC(=O)CNC(=O)C(=O)[C@@H]1CCCN1C(=O)CNC(=O)c1ccnc2ccccc12 | inactive | inactive | inactive | inactive | – |
| CC(C)NC(=O)CNC(=O)C(=O)[C@@H]1CCCN1C(=O)CNC(=O)c1ccnc2ccccc12 | inactive | inactive | inactive | inactive | – |
| N#C[C@@H]1CC(F)(F)CN1C(=O)CNC(=O)c1ccnc2ccccc12 | – | – | – | – | 0.31 |
| COC(=O)CNC(=O)C(=O)[C@@H]1CCCN1C(=O)CNC(=O)c1ccnc2ccccc12 | inactive | inactive | inactive | inactive | – |

| Compound | Activity (HeLa) | Activity (HL-60) | Activity (HepG2) | Activity (CCRF-CEM) | IC50 [1] [µM] |
| --- | --- | --- | --- | --- | --- |
| CC(C)(C)CNC(=O)C(=O)[C@@H]1CCCN1C(=O)CNC(=O)c1ccnc2ccccc12 | inactive | inactive | inactive | inactive | – |
| CCOC(=O)CNC(=O)C(=O)[C@@H]1CCCN1C(=O)CNC(=O)c1ccnc2ccccc12 | inactive | inactive | inactive | inactive | – |
| COC(=O)[C@H](CO)NC(=O)CNC(=O)C(=O)[C@@H]1CCCN1C(=O)CNC(=O)c1ccnc2ccccc12 | inactive | inactive | inactive | inactive | – |
| O=CCNC(=O)CNC(=O)C(=O)[C@@H]1CCCN1C(=O)CNC(=O)c1ccnc2ccccc12 | inactive | inactive | inactive | inactive | – |
| CC(C)NC(=O)C(=O)[C@@H]1CCCN1C(=O)CNC(=O)c1ccnc2ccccc12 | inactive | inactive | inactive | inactive | – |
| COC(=O)C(C)NC(=O)C(=O)[C@@H]1CCCN1C(=O)CNC(=O)c1ccnc2ccccc12 (mixture of isomers) | inactive | inactive | inactive | inactive | – |
| COC(=O)CNC(=O)CNC(=O)C(=O)[C@@H]1CCCN1C(=O)CNC(=O)c1ccnc2ccccc12 | inactive | inactive | inactive | inactive | – |
| COC(=O)c1ccc(NC(=O)C(=O)[C@@H]2CCCN2C(=O)CNC(=O)c2ccnc3ccccc23)cc1 | inactive | inactive | inactive | inactive | – |
| O=C(NCCc1ccccc1)C(=O)[C@@H]1CCCN1C(=O)CNC(=O)c1ccnc2ccccc12 | inactive | inactive | inactive | inactive | – |
| COc1ccc(CNC(=O)CNC(=O)C(=O)[C@@H]2CCCN2C(=O)CNC(=O)c2ccnc3ccccc23)cc1OC | inactive | inactive | inactive | inactive | – |
| O=C(NCC(=O)N1CCCC1)C(=O)[C@@H]1CCCN1C(=O)CNC(=O)c1ccnc2ccccc12 | inactive | inactive | inactive | inactive | – |
| COC(=O)[C@H](CC(C)C)NC(=O)CNC(=O)C(=O)[C@@H]1CCCN1C(=O)CNC(=O)c1ccnc2ccccc12 | inactive | inactive | inactive | inactive | – |
| COC(=O)[C@H](CC(=O)OCc1ccccc1)NC(=O)CNC(=O)C(=O)[C@@H]1CCCN1C(=O)CNC(=O)c1ccnc2ccccc12 | inactive | inactive | inactive | inactive | – |
| CNC(=O)CNC(=O)C(=O)[C@@H]1CCCN1C(=O)CNC(=O)c1ccnc2ccccc12 | inactive | inactive | inactive | inactive | – |
| COC(=O)C(NC(=O)C(=O)[C@@H]1CCCN1C(=O)CNC(=O)c1ccnc2ccccc12)C(C)C (stereo not given in full) | inactive | inactive | inactive | inactive | – |
| COC(=O)[C@H](CCCCN)NC(=O)CNC(=O)C(=O)[C@@H]1CCCN1C(=O)CNC(=O)c1ccnc2ccccc12 | inactive | inactive | inactive | inactive | – |
